Results taken from article PMC12377202, “Design, synthesis, and cytotoxic evaluation of quinazoline-based derivatives as VEGER-2 inhibitors: comparative study against EGFR kinase activity, induction of apoptosis, and molecular docking study” (RSC Advances, 2025).

Tests used:
HepG-2 = assay: MTT anti-proliferative assay, HepG-2; format: cell-based, human
TNF-alpha = TNF-alpha level in HepG-2 cells; format: cell-based, human; conditions: for TNF-alpha ±SE: control 43.48
Protocol: (§1) All synthesized compounds were tested at their cytotoxic concentrations in HepG-2 cells for analysis of gene expression levels of apoptotic markers caspase-3, caspase-9, TNF-α, and IL-6 proteins, and only two active compounds were tested for BAX and Bcl-2 proteins.
(§2) through Flow cytometric analysis.
(§3) Pellets were collected again and incubated with
(§4) Total RNA from vehicle-treated
(§5) (Thermo Scientific, USA).
(§6) All experiments were performed in […]

IL-6R = IL-6R level in HepG-2 cells; format: cell-based, human
Protocol: as §1, §2, §3, §4, §5, §6

caspase-9 = assay: Caspase-9 expression level in HepG-2 cells; format: cell-based, human; conditions: for Caspase-9 ± SE: HepG-2, at IC50 concentrations, control 11.01
Protocol: as §1, §2, §3, §4, §5, §6

caspase-3 = assay: Caspase-3 expression level in HepG-2 cells; format: cell-based, human; conditions: for Caspase-3 ± SE: HepG-2, at IC50 concentrations, control 0.460
Protocol: as §1, §2, §3, §4, §5, §6

K-562 = assay: MTT anti-proliferative assay, K-562; format: cell-based, human
MCF-7 = assay: MTT anti-proliferative assay, MCF-7; format: cell-based, human
EGFR = EGFR (Homo sapiens, UniProt P00533); assay: EGFR kinase inhibition assay (ELISA kit)
VEGFR-2 = VEGFR-2 (Homo sapiens, UniProt P35968); assay: In vitro VEGFR-2 inhibitory assay (ELISA kit); conditions: VEGFR-2 kinase
VEGFR-2, sequence (P35968 20-1356): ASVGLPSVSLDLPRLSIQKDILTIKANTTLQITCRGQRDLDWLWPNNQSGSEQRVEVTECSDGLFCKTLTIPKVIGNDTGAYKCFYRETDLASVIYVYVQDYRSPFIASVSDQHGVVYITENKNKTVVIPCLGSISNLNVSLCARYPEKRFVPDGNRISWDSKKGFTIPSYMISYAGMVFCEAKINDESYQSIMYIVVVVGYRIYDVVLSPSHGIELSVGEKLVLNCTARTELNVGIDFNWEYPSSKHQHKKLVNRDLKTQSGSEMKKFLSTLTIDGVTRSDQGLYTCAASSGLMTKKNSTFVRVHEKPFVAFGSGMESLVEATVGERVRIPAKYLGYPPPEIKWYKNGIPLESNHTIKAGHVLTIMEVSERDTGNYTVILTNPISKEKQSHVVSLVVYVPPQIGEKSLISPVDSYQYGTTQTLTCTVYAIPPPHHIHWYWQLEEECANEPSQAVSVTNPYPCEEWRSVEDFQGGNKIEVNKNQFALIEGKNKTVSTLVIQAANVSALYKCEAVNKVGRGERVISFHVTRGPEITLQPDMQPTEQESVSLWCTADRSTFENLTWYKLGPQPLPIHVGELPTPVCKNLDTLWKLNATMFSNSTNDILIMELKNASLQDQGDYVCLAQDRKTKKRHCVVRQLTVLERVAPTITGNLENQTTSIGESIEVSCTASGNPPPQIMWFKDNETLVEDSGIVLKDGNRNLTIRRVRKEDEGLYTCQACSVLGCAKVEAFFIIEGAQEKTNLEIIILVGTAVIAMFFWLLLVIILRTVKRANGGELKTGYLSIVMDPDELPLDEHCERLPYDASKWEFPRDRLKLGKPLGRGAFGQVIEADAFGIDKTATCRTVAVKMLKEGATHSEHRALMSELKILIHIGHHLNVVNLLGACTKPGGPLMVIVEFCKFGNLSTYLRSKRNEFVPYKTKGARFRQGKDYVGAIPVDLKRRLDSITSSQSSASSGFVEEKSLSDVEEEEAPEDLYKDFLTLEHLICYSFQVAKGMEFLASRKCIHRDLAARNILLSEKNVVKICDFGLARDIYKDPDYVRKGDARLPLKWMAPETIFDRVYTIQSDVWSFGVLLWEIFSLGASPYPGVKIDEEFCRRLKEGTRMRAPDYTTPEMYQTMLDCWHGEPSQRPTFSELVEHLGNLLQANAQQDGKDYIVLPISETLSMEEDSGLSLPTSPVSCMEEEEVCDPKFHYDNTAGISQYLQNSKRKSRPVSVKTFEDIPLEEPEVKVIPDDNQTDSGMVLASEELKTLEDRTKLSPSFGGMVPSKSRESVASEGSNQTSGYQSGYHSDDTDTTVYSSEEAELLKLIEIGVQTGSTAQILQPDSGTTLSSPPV

N-(2,6-Dichlorophenyl)-2-(7-nitro-4-oxoquinazolin-3(4H)-yl)acetamide [9d]
Toxicity % (HepG-2; HepG-2, 0.195 ug/ml): 39.23% | Viability % (HepG-2; HepG-2, 0.195 ug/ml): 60.77% | Toxicity % (HepG-2; HepG-2, 0.391 ug/ml): 55.68% | Viability % (HepG-2; HepG-2, 0.391 ug/ml): 44.32% | Toxicity % (HepG-2; HepG-2, 0.781 ug/ml): 70.62% | Viability % (HepG-2; HepG-2, 0.781 ug/ml): 29.38% | Toxicity % (HepG-2; HepG-2, 1.563 ug/ml): 85.02% | Viability % (HepG-2; HepG-2, 1.563 ug/ml): 14.98% | Toxicity % (HepG-2; HepG-2, 3.125 ug/ml): 89.27% | Viability % (HepG-2; HepG-2, 3.125 ug/ml): 10.73% | Toxicity % (HepG-2; HepG-2, 6.25 ug/ml): 91.87% | Viability % (HepG-2; HepG-2, 6.25 ug/ml): 8.132% | Toxicity % (HepG-2; HepG-2, 12.5 ug/ml): 93.19% | Viability % (HepG-2; HepG-2, 12.5 ug/ml): 6.813% | Toxicity % (HepG-2; HepG-2, 25 ug/ml): 93.7% | Viability % (HepG-2; HepG-2, 25 ug/ml): 6.3% | IC50 (HepG-2; MTT, HepG-2, read-out: Cytotoxicity against cancer cells IC50 HepG-2): 322.7 ± 2.9 nM | TNF-alpha ±SE (TNF-alpha; HepG-2, at IC50 concentrations): 10.2 ± 1.53 ng/L | TNF-α expression level (TNF-alpha; HepG-2, control 43.48%): 10.2 ng/L | TNF-alpha ±SE (TNF-alpha; raw data, HepG2): 16.01 ng/L | IL-6R ± SE (IL-6R; HepG-2, at IC50 concentrations, control 44.10): 16.64 ± 0.83 ng/L | IL-6R protein level (IL-6R; HepG-2, control 44.10%): 16.64 ng/L | IL-6 ±SE (IL-6R; raw data, HepG2, control 44.10): 10.13 ng/L | Caspase-9 ± SE (caspase-9): 43.52 ± 3.69 ng/L | Caspase-9 ± SE (caspase-9; listed as N3): 43.52 ng/L | caspase-9 expression level, fold increase (caspase-9; HepG-2, vs control cells): 3.95 fold | Caspase-3 ± SE (caspase-3): 0.68 ± 0.013 ng/mL | Caspase-3 ± SE (caspase-3; listed as N3): 0.68 ng/mL | caspase-3 expression level, fold increase (caspase-3; HepG-2, vs control cells): 1.5 fold | Toxicity % (K-562; K-562, 0.195 umol): 0.4516% | Viability % (K-562; K-562, 0.195 umol): 99.55% | Toxicity % (K-562; K-562, 0.391 umol): 4.146% | Viability % (K-562; K-562, 0.391 umol): 95.85% | Toxicity % (K-562; K-562, 0.781 umol): 28.41% | Viability % (K-562; K-562, 0.781 umol): 71.59% | Toxicity % (K-562; K-562, 1.563 umol): 39.82% | Viability % (K-562; K-562, 1.563 umol): 60.18% | Toxicity % (K-562; K-562, 3.125 umol): 62.19% | Viability % (K-562; K-562, 3.125 umol): 37.81% | Toxicity % (K-562; K-562, 6.25 umol): 87.81% | Viability % (K-562; K-562, 6.25 umol): 12.19% | Toxicity % (K-562; K-562, 12.5 umol): 90.52% | Viability % (K-562; K-562, 12.5 umol): 9.483% | Toxicity % (K-562; K-562, 25 umol): 92.57% | Viability % (K-562; K-562, 25 umol): 7.43% | IC50 (K-562; MTT, K-562, read-out: Cytotoxicity against cancer cells IC50 K-562): 2274 ± 3.5 nM | Toxicity % (MCF-7; MCF-7, 0.195 umol): 49.43% | Viability % (MCF-7; MCF-7, 0.195 umol): 50.57% | Toxicity % (MCF-7; MCF-7, 0.391 umol): 61.52% | Viability % (MCF-7; MCF-7, 0.391 umol): 38.48% | Toxicity % (MCF-7; MCF-7, 0.781 umol): 74.05% | Viability % (MCF-7; MCF-7, 0.781 umol): 25.95% | Toxicity % (MCF-7; MCF-7, 1.563 umol): 65.74% | Toxicity % (MCF-7; MCF-7, 3.125 umol): 91.03% | Viability % (MCF-7; MCF-7, 3.125 umol): 8.971% | Toxicity % (MCF-7; MCF-7, 6.25 umol): 92.04% | Viability % (MCF-7; MCF-7, 6.25 umol): 7.96% | Toxicity % (MCF-7; MCF-7, 12.5 umol): 93.58% | Viability % (MCF-7; MCF-7, 12.5 umol): 6.42% | Toxicity % (MCF-7; MCF-7, 25 umol): 92.88% | Viability % (MCF-7; MCF-7, 25 umol): 7.124% | IC50 (MCF-7; MTT, MCF-7, read-out: Cytotoxicity against cancer cells IC50 MCF-7): 204 ± 2.6 nM | Activity % (EGFR; HepG2): 18.428% | Inhibition % (EGFR; HepG2): 81.572% | Activity % (EGFR; K-562): 16.638% | Inhibition % (EGFR; K-562): 83.362% | Activity % (EGFR; MCF7): 30.226% | Inhibition % (EGFR; MCF7): 69.774% | Activity % (VEGFR-2; HepG2): 19.818% | Inhibition % (VEGFR-2; HepG2): 80.182% | Activity % (VEGFR-2; K-562): 41.248% | Inhibition % (VEGFR-2; K-562): 58.752% | Activity % (VEGFR-2; MCF7): 52.958% | Inhibition % (VEGFR-2; MCF7): 47.042%
